From PubChem BioAssay (NCI)
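Each compound was tested at five concentrations against cells in 96-well plates for 48 hours. TGI is the concentration that stops growth completely.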

How the values were obtained:
Assay in all cases: DTP human tumour cell line panel, 48 h
786-0 renal = system: 786-0 renal
A498 renal = system: A498 renal
A549 NSCLC = system: A549 NSCLC
ACHN renal = system: ACHN renal
BT-549 breast = system: BT-549 breast
CAKI-1 renal = system: CAKI-1 renal
CCRF-CEM leukemia = system: CCRF-CEM leukemia
COLO 205 colon = system: COLO 205 colon
DU-145 prostate = system: DU-145 prostate
EKVX NSCLC = system: EKVX NSCLC
HCC-2998 colon = system: HCC-2998 colon
HCT-116 colon = system: HCT-116 colon
HCT-15 colon = system: HCT-15 colon
HL-60(TB) leukemia = system: HL-60(TB) leukemia
HOP-62 NSCLC = system: HOP-62 NSCLC
HOP-92 NSCLC = system: HOP-92 NSCLC
HT29 colon = system: HT29 colon
IGROV1 ovarian = system: IGROV1 ovarian
K-562 leukemia = system: K-562 leukemia
KM12 colon = system: KM12 colon
LOX IMVI melanoma = system: LOX IMVI melanoma
M14 melanoma = system: M14 melanoma
MALME-3M melanoma = system: MALME-3M melanoma
MCF7 breast = system: MCF7 breast
MDA-MB-231 breast = system: MDA-MB-231 breast
MDA-MB-435 = system: MDA-MB-435
MDA-N = system: MDA-N
MOLT-4 leukemia = system: MOLT-4 leukemia
NCI-H226 lung = system: NCI-H226 lung
NCI-H23 lung = system: NCI-H23 lung
NCI-H460 lung = system: NCI-H460 lung
NCI-H522 lung = system: NCI-H522 lung
NCI/ADR-RES ovarian = system: NCI/ADR-RES ovarian
OVCAR-3 ovarian = system: OVCAR-3 ovarian
OVCAR-4 ovarian = system: OVCAR-4 ovarian
OVCAR-5 ovarian = system: OVCAR-5 ovarian
OVCAR-8 ovarian = system: OVCAR-8 ovarian
PC-3 prostate = system: PC-3 prostate
RPMI-8226 leukemia = system: RPMI-8226 leukemia
RXF 393 renal = system: RXF 393 renal
SF-268 CNS = system: SF-268 CNS
SF-295 CNS = system: SF-295 CNS
SF-539 CNS = system: SF-539 CNS
SK-MEL-2 melanoma = system: SK-MEL-2 melanoma
SK-MEL-28 melanoma = system: SK-MEL-28 melanoma
SK-MEL-5 melanoma = system: SK-MEL-5 melanoma
SK-OV-3 ovarian = system: SK-OV-3 ovarian
SN12C renal = system: SN12C renal
SNB-19 CNS = system: SNB-19 CNS
SNB-75 CNS = system: SNB-75 CNS
SR leukemia = system: SR leukemia
SW-620 colon = system: SW-620 colon
T-47D breast = system: T-47D breast
TK-10 renal = system: TK-10 renal
U251 CNS = system: U251 CNS
UACC-257 melanoma = system: UACC-257 melanoma
UACC-62 melanoma = system: UACC-62 melanoma
UO-31 renal = system: UO-31 renal
HS 578T breast = system: HS 578T breast

Measured: TGI

COC(=O)NC(=O)NC(Cc1ccccc1)NC(=O)OCc1ccccc1 (centres undefined)
78.1 µM: MDA-MB-231 breast
45.4 µM: RXF 393 renal
71.4 µM: SF-539 CNS
42.5 µM: HOP-92 NSCLC
57.5 µM: SK-OV-3 ovarian
91.5 µM: A498 renal
50.5 µM: SNB-75 CNS
not listed: HS 578T breast
> 100 µM: all other assays above

COCN1C(=O)[C@@H]2CCCN2C(=O)c2cc(OC)c(Cc3ccccc3)cc21
not listed: CCRF-CEM leukemia | COLO 205 colon | HCC-2998 colon | HL-60(TB) leukemia | HOP-92 NSCLC | K-562 leukemia | MOLT-4 leukemia | NCI-H226 lung | NCI-H460 lung | OVCAR-3 ovarian | RPMI-8226 leukemia | SK-MEL-5 melanoma | SR leukemia
> 100 µM: all other assays above
